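How tested: cells in 96-well plates exposed to compound for 48 hours at five concentrations. GI50: concentration for 50% inhibition of growth. TGI marks complete inhibition of growth.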 Where a SMILES comes first, the peptide text is derived from it. The star is where a group is joined. Cbz = O=C(OCc1ccccc1)*; Boc = CC(C)(C)OC(=O)*; OBn = c1ccc(CO*)cc1
How the values were obtained:
Assay in all cases: inhibition of tumour cell growth, NCI panel, 48 h
SF-539 CNS = test system: SF-539 CNS
UO-31 renal = test system: UO-31 renal
COLO 205 colon = test system: COLO 205 colon
SF-268 CNS = test system: SF-268 CNS
NCI-H226 lung = test system: NCI-H226 lung
MDA-N = test system: MDA-N
CCRF-CEM leukemia = test system: CCRF-CEM leukemia
BT-549 breast = test system: BT-549 breast
SK-OV-3 ovarian = test system: SK-OV-3 ovarian
HCC-2998 colon = test system: HCC-2998 colon

Structure (SMILES)	TGI (SF-539 CNS)	TGI (UO-31 renal)	TGI (COLO 205 colon)	TGI (SF-268 CNS)	TGI (NCI-H226 lung)	TGI (MDA-N)	TGI (CCRF-CEM leukemia)	TGI (BT-549 breast)	TGI (SK-OV-3 ovarian)	TGI (HCC-2998 colon)	GI50 (HCC-2998 colon)	GI50 (SF-539 CNS)	GI50 (UO-31 renal)	GI50 (COLO 205 colon)	GI50 (NCI-H226 lung)	GI50 (BT-549 breast)	GI50 (SK-OV-3 ovarian)	GI50 (SF-268 CNS)	GI50 (CCRF-CEM leukemia)
CC(=O)OC1[C@H](n2ccnc2)C[C@H]2[C@@H]3CC=C4CC(N5CCCC5)CC[C@]4(C)[C@H]3CC[C@]12C (some centres undefined)	36.8 µM	> 100 µM	> 100 µM	> 100 µM	> 100 µM	> 100 µM	> 100 µM	–	–	–	–	–	–	–	–	–	–	–	–
Cc1ccc([N+](=O)[O-])cc1S(=O)(=O)Nc1ccc(C2=NN(S(=O)(=O)c3cc([N+](=O)[O-])ccc3C)C(c3ccco3)C2)cc1 (centres undefined)	> 100 µM	> 100 µM	> 100 µM	> 100 µM	> 100 µM	> 100 µM	> 100 µM	97.5 µM	> 100 µM	–	–	–	–	–	–	–	–	–	–
COC1=CC(=O)NCCN1	> 100 µM	> 100 µM	> 100 µM	> 100 µM	> 100 µM	–	> 100 µM	–	> 100 µM	> 100 µM	–	–	–	–	–	–	–	–	–
O=P1(Oc2ccccc2)NCc2ncccc2O1 (centres undefined)	> 100 µM	> 100 µM	> 100 µM	–	> 100 µM	> 100 µM	> 100 µM	> 100 µM	–	> 100 µM	–	–	–	–	–	–	–	–	–
O=C1C=C2CC[C@H]3[C@@H]4CC[C@H](Oc5c6ccccc6nc6ccccc56)[C@H]4CC[C@@H]3[C@H]2CC1	> 100 µM	–	> 100 µM	> 100 µM	> 100 µM	75.2 µM	60.1 µM	> 100 µM	> 100 µM	–	–	–	–	–	–	–	–	–	–
COC(=O)C1=COc2c(n(C)c3ccccc23)-c2ccccc21	> 100 µM	> 100 µM	> 100 µM	> 100 µM	> 100 µM	> 100 µM	> 100 µM	> 100 µM	> 100 µM	–	–	–	–	–	–	–	–	–	–
CC(C)CC(NC(=O)C(Cc1ccccc1)NC(=O)C(Cc1ccccc1)NC(=O)OC(C)(C)C)C(=O)OCc1ccccc1 (stereo not drawn) (Boc-Phe-Phe-Leu-OBn; configuration not given here)	> 100 µM	> 100 µM	> 100 µM	> 100 µM	> 100 µM	> 100 µM	> 100 µM	> 100 µM	> 100 µM	–	–	–	–	–	–	–	–	–	–
O=C1CCCC2=C1CC1=C(CCCC1=O)N2c1cccc([N+](=O)[O-])c1	> 100 µM	> 100 µM	–	> 100 µM	> 100 µM	–	> 100 µM	> 100 µM	> 100 µM	> 100 µM	–	–	–	–	–	–	–	–	–
Cc1nnc([C@@]2(C)CC[C@H]3[C@@H](CCC4=CC(=O)CC[C@@]43C)[C@@H]2CC#N)o1	> 100 µM	> 100 µM	> 100 µM	> 100 µM	> 100 µM	> 100 µM	> 100 µM	> 100 µM	> 100 µM	–	–	–	–	–	–	–	–	–	–
O=[N+]([O-])c1ccc(COc2cccc3cccnc23)cc1	92.7 µM	68.1 µM	33.5 µM	68.7 µM	95.4 µM	–	23.7 µM	–	> 100 µM	> 100 µM	–	–	–	–	–	–	–	–	–
O=C(c1ccccc1)c1nn(-c2ccccc2)c2nc3nc(-c4ccccc4)cc(=O)n3nc12	38.6 µM	> 100 µM	64.1 µM	–	> 100 µM	–	–	52.2 µM	> 100 µM	60.2 µM	32.6 µM	19.2 µM	25.7 µM	26.8 µM	47.4 µM	21.2 µM	62.2 µM	–	–
CC(=O)C1=C(C)N(c2ccccc2)C2(O)C=CC(=O)C3=C(O)c4ccccc4C(=O)C312 (centres undefined)	46.7 µM	33.7 µM	36.8 µM	57.8 µM	59.2 µM	–	> 100 µM	31.8 µM	> 100 µM	25.4 µM	–	–	–	–	–	–	–	–	–
CCN(CC)CC(=O)Nc1ccc2c(c1)C(=O)c1ccc(NC(=O)CN(CC)CC)cc1C2=O	30.9 µM	> 100 µM	54.1 µM	82.7 µM	–	–	> 100 µM	–	88 µM	> 100 µM	–	–	–	–	–	–	–	–	–
C[N+](C)(C)C(C1=CCCC1=O)c1ccccc1 (centres undefined)	> 100 µM	> 100 µM	> 100 µM	60.1 µM	> 100 µM	> 100 µM	> 100 µM	95.5 µM	> 100 µM	–	–	–	–	–	–	–	–	–	–
CN=C(NC)N(C)c1nc(=[N+](C)C)ss1	> 100 µM	> 100 µM	–	> 100 µM	> 100 µM	–	> 100 µM	–	> 100 µM	> 100 µM	–	–	–	–	–	–	–	–	–
C=CCN1C[C@@H](C)N([C@@H](c2ccc(C(=O)N(CC)CC)cc2)c2cccc(OC)c2)C[C@@H]1C	> 100 µM	> 100 µM	> 100 µM	> 100 µM	> 100 µM	> 100 µM	> 100 µM	> 100 µM	> 100 µM	–	–	–	–	–	–	–	–	–	–
COc1ccc2c(c1)CCN1C3=C(CCC3)C(=O)C[C@@H]21	> 100 µM	> 100 µM	> 100 µM	> 100 µM	> 100 µM	–	> 100 µM	–	> 100 µM	> 100 µM	–	–	–	–	–	–	–	–	–
NC(C(=O)OC(=O)c1ccccc1)C(=O)OC(=O)c1ccccc1	> 100 µM	> 100 µM	> 100 µM	> 100 µM	> 100 µM	–	> 100 µM	> 100 µM	–	–	–	–	–	–	–	–	–	–	–

Structure (SMILES)	TGI (SF-539 CNS)	TGI (UO-31 renal)	TGI (COLO 205 colon)	TGI (SF-268 CNS)	TGI (NCI-H226 lung)	TGI (MDA-N)	TGI (CCRF-CEM leukemia)	TGI (BT-549 breast)	TGI (SK-OV-3 ovarian)	TGI (HCC-2998 colon)	GI50 (HCC-2998 colon)	GI50 (SF-539 CNS)	GI50 (UO-31 renal)	GI50 (COLO 205 colon)	GI50 (NCI-H226 lung)	GI50 (BT-549 breast)	GI50 (SK-OV-3 ovarian)	GI50 (SF-268 CNS)	GI50 (CCRF-CEM leukemia)
O=C1CCCC[C@H]1C(O)CC1CC(=O)N(c2ccccc2)C(=O)C1 (some centres undefined)	> 100 µM	> 100 µM	–	> 100 µM	> 100 µM	> 100 µM	> 100 µM	> 100 µM	–	> 100 µM	–	–	–	–	–	–	–	–	–
CCCCc1c2c(nc3c1CC/C(=C\c1ccc([N+](=O)[O-])cc1)C3=O)CCCC2	3.2 µM	4.13 µM	6.63 µM	3.93 µM	6.5 µM	–	6.68 µM	–	3.91 µM	3.17 µM	–	–	–	–	–	–	–	–	–
Cc1cc(C)c(C(=O)/C=C/c2ccccc2)c(C)c1	–	> 100 µM	71.3 µM	50.6 µM	43.1 µM	–	> 100 µM	–	> 100 µM	–	–	–	–	–	–	–	–	–	–
Brc1ccc(-c2cc(-c3ccc4c(c3)OCO4)c(-c3cccs3)n2Cc2ccccc2)cc1	> 100 µM	> 100 µM	> 100 µM	> 100 µM	–	> 100 µM	> 100 µM	–	> 100 µM	> 100 µM	–	–	–	–	–	–	–	–	–
COc1cc2cc(C(=O)N3CC(CCl)c4c3cc(O)c3ccccc43)[nH]c2c(OC)c1OC (centres undefined)	< 0.005 µM	> 50 µM	–	10.8 µM	–	–	< 0.005 µM	9.94 µM	0.996 µM	< 0.005 µM	–	–	–	–	–	–	–	–	–
COc1ccc(N(C(=O)NCCO)c2ccccc2)cc1	> 100 µM	> 100 µM	> 100 µM	> 100 µM	> 100 µM	> 100 µM	> 100 µM	–	> 100 µM	> 100 µM	–	–	–	–	–	–	–	–	–
Cc1ccc(C)c(COCCOCn2c(=O)[nH]c(=O)c3cc(Br)ccc32)c1	> 100 µM	> 100 µM	> 100 µM	> 100 µM	> 100 µM	> 100 µM	> 100 µM	–	> 100 µM	> 100 µM	–	–	–	–	–	–	–	–	–
COC[C@@H](N=CN1CCc2cc(OC)c(OC)cc2C1)C(C)(C)C	> 100 µM	> 100 µM	> 100 µM	> 100 µM	> 100 µM	–	> 100 µM	–	> 100 µM	–	–	–	–	–	–	–	–	–	–
COc1ccc(-c2nc3c(nc2-c2ccc(OC)cc2)N(C)S(=O)(=O)N=C3N)cc1	51.5 µM	53.2 µM	32.5 µM	> 100 µM	–	–	> 100 µM	–	88.8 µM	> 100 µM	–	–	–	–	–	–	–	–	–
C[C@]12CCc3sc(-c4cccc(F)c4)nc3C1=CC[C@@H]1[C@@H]2CC[C@]2(C)C(=O)CC[C@@H]12	2.48 µM	2.98 µM	5.46 µM	18.9 µM	–	–	9.58 µM	8.06 µM	9.13 µM	> 100 µM	3.19 µM	1.04 µM	1.61 µM	2.42 µM	–	2.2 µM	2.91 µM	3.15 µM	2.45 µM
CCc1c(C)c2ccc(OCC(=O)N=Nc3c(O)[nH]c4ccccc34)c(C)c2oc1=O	> 33.3 µM	> 33.3 µM	–	–	> 33.3 µM	–	> 33.3 µM	2.1 µM	–	–	–	> 33.3 µM	> 33.3 µM	–	> 33.3 µM	0.817 µM	–	–	1.34 µM
CC(C)(SCc1ccccc1)C(N)C(=O)O (centres undefined)	–	> 100 µM	–	> 100 µM	> 100 µM	> 100 µM	> 100 µM	> 100 µM	–	–	–	–	–	–	–	–	–	–	–
CCOC(=O)CNC(=O)C(C)NC(=O)C(NC(=O)OCc1ccccc1)C(C)C (stereo not drawn) (Cbz-Val-Ala-Gly-OEt; configuration not given here)	> 100 µM	> 100 µM	> 100 µM	> 100 µM	–	> 100 µM	–	> 100 µM	> 100 µM	> 100 µM	–	–	–	–	–	–	–	–	–
COc1ccc(-c2nc3cc(C(F)(F)F)ccc3n2CC2CCCN3CCCCC23)cc1 (centres undefined)	30.5 µM	38.8 µM	–	28.6 µM	32.3 µM	33.4 µM	31.4 µM	–	33.7 µM	24.5 µM	–	–	–	–	–	–	–	–	–
CC#CCCCC1(C)CCCNC1=S (centres undefined)	> 10 µM	> 10 µM	–	> 10 µM	–	–	> 10 µM	> 10 µM	> 10 µM	–	–	–	–	–	–	–	–	–	–
CN(C)Cc1cc(C(=O)/C=C/c2ccc(F)cc2)cc(CN(C)C)c1O	44.4 µM	38.9 µM	–	63.9 µM	> 100 µM	–	78 µM	–	–	–	–	–	–	–	–	–	–	–	–
S=C(c1c[nH]c2ccccc12)N1CCCCC1	> 100 µM	–	> 100 µM	> 100 µM	> 100 µM	> 100 µM	> 100 µM	> 100 µM	> 100 µM	–	–	–	–	–	–	–	–	–	–

From PubChem BioAssay (NCI)
